In experiment [1] the target is T1, Beta-glucosidase (Homo sapiens, UniProt Q9HCG7).
T1 sequence (Q9HCG7 whole entry): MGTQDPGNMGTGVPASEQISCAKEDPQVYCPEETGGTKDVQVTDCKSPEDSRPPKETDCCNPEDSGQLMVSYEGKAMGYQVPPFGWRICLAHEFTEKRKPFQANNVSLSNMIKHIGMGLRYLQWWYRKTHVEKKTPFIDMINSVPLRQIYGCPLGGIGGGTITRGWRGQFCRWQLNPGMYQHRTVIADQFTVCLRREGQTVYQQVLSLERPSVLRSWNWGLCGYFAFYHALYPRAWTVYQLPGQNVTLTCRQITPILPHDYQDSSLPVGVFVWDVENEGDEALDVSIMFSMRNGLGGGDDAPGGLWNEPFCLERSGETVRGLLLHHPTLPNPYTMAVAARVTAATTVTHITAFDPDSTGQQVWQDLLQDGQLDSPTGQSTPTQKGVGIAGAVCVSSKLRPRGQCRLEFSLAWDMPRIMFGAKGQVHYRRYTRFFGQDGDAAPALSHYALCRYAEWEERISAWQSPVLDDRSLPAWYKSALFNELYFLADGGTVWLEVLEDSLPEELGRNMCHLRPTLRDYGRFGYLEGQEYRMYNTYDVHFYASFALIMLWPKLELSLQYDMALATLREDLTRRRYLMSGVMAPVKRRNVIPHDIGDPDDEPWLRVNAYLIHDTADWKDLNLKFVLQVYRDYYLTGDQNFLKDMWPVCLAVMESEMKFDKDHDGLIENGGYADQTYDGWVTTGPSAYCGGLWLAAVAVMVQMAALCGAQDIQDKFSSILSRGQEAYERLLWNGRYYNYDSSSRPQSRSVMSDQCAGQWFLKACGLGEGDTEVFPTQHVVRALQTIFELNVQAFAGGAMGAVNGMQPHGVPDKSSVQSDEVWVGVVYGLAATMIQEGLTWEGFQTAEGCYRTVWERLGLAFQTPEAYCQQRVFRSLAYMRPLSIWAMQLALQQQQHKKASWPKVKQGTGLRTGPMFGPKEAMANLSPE

The target of experiment [2] is T2, Ceramide glucosyltransferase (Homo sapiens, UniProt Q16739).
T2 sequence (Q16739 whole entry): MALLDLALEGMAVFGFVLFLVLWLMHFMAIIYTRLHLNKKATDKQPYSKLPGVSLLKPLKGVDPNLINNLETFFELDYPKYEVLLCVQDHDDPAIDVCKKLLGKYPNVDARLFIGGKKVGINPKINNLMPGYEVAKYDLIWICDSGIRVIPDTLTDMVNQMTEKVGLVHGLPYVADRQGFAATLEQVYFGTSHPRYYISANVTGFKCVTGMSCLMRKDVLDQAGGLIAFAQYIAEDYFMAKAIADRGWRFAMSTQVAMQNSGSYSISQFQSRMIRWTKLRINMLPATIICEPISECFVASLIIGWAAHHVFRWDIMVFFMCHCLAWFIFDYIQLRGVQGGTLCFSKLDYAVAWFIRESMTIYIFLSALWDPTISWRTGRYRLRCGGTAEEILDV

Experiment [3] concerns the target T3, Lysosomal acid glucosylceramidase (Homo sapiens, UniProt P04062).
T3 sequence (P04062 whole entry): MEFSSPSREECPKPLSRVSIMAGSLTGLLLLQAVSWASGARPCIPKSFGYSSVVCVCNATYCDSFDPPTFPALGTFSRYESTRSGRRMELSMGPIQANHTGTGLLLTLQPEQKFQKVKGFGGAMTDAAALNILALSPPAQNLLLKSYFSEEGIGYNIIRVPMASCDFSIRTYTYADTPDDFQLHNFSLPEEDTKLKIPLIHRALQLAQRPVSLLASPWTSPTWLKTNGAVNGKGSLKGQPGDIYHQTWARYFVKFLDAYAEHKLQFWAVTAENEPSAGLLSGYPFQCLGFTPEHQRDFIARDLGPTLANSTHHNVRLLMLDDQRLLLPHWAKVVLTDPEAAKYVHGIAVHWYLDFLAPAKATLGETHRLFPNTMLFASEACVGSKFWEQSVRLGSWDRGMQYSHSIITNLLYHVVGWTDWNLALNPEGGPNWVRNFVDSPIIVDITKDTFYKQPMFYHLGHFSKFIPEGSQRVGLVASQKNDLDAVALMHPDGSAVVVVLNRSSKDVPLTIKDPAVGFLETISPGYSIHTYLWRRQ

Experiment [4] addresses T2, Ceramide glucosyltransferase. This is another data set of the same source.
Experiment [5] deals with Lactase/phlorizin hydrolase (Homo sapiens, UniProt P09848). Description: Inhibition of intestinal lactase (unknown origin).
The target in experiment [6] is Maltase-glucoamylase (Homo sapiens, UniProt O43451). Nature of the experiment: Inhibition of intestinal maltase (unknown origin).
The target in experiment [7] is Sucrase-isomaltase, intestinal (Homo sapiens, UniProt P14410). Description: Inhibition of intestinal sucrase (unknown origin).

Each structure is given as a SMILES string. Bounds are passed on as bounds.

A word on the IC50: it is the concentration that inhibits the measured activity by half. High values mean weaker potency, low ones greater potency.

Chain of Sucrase-isomaltase, intestinal (P14410 2-1007 limits assumed): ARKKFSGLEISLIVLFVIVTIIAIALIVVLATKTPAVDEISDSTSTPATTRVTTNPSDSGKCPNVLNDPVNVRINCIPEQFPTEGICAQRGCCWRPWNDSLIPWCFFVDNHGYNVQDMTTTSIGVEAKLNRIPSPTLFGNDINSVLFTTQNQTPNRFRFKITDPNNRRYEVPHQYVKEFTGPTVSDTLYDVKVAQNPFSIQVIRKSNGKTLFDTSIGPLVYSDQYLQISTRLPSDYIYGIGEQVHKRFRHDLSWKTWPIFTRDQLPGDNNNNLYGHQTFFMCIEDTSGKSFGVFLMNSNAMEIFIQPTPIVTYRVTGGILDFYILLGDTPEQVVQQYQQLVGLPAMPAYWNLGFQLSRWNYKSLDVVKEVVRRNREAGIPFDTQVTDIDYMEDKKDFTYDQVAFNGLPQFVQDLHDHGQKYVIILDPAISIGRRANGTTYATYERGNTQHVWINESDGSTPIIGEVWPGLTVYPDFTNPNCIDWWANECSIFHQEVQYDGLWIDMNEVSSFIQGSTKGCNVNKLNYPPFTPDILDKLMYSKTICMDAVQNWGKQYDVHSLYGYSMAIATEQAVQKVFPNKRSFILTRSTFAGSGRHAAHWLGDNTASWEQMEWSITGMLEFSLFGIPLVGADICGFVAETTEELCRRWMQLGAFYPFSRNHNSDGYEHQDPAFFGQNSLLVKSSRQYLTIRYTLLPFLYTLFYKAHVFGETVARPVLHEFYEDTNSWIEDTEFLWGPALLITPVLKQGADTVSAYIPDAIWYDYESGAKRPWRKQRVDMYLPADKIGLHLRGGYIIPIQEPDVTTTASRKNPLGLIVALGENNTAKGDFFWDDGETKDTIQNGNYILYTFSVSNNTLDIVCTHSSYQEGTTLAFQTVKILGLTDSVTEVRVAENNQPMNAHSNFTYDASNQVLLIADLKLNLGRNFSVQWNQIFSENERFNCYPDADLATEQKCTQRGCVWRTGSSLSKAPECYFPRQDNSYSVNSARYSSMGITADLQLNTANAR
Chain of Sucrase-isomaltase, intestinal (P14410 1008-1827 limits assumed): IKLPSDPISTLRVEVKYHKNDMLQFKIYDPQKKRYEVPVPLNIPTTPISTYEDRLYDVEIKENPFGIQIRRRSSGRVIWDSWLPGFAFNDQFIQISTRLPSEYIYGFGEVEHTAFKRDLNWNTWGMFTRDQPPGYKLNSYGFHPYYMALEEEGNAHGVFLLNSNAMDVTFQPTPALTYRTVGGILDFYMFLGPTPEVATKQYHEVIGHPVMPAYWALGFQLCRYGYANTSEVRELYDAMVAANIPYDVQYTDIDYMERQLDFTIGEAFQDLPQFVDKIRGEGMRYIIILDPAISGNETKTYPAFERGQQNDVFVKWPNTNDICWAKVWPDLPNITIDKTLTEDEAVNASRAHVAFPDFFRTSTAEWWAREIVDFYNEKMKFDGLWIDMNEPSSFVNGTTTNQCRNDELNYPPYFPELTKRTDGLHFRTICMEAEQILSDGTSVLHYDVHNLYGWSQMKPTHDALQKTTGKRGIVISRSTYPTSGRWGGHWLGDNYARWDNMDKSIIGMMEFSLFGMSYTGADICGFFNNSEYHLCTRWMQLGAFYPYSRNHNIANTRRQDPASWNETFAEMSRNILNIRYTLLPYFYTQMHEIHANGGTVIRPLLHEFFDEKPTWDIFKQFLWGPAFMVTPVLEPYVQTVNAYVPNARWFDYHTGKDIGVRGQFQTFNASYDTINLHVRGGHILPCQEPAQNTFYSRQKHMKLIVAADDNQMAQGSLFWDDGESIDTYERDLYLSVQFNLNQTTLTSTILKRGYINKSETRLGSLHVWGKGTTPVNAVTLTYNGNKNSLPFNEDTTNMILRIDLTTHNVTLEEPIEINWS
Chain of Lactase/phlorizin hydrolase (P09848 869-1927 limits assumed): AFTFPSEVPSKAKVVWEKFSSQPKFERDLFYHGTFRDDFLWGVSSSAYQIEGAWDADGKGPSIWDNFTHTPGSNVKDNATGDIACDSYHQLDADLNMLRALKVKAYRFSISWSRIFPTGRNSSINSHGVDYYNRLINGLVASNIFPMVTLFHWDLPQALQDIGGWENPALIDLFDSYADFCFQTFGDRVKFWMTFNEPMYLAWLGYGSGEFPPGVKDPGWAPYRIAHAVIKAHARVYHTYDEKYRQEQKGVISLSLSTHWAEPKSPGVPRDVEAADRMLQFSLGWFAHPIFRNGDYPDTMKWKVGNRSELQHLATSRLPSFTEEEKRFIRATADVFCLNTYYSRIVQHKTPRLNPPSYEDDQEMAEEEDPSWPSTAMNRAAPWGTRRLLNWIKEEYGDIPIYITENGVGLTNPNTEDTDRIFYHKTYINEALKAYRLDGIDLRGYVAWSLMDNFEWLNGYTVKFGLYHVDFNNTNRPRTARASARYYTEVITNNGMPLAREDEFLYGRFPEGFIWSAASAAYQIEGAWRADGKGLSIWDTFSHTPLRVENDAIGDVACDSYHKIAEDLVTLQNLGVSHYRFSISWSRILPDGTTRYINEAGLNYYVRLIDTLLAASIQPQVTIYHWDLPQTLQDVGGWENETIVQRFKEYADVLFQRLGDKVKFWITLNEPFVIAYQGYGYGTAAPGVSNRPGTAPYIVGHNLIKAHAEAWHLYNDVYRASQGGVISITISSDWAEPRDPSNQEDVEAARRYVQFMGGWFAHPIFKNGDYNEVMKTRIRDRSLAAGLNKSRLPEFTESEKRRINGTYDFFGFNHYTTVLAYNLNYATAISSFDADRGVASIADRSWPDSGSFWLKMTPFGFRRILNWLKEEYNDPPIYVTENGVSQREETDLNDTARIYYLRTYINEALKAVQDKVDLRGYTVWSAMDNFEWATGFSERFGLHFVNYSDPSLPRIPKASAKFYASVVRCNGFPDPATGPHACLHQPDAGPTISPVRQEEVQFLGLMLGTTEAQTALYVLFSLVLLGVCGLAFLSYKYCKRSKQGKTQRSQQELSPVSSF

As to `OC[C@@H]1[C@@H](O)[C@H](O)[C@@H](O)CN1CCCC/C=C\C12CC3CC(CC(C3)C1)C2`, the results for the IC50 in experiment [1], in experiment [2] and in experiment [3] were 5 nM, “Not Active” and 0.5 µM, respectively.
The matching figures for `OC[C@@H]1[C@@H](O)[C@H](O)[C@@H](O)CN1CCCCCCC12CC3CC(CC(C3)C1)C2`: 10 nM, “Not Active” and 0.06 µM.
In the case of `CC(C)=CCC/C(C)=C/CC/C(C)=C/CCOCCCCCN1C[C@H](O)[C@@H](O)[C@H](O)[C@H]1CO`, the values for the half-maximal inhibitory concentration (IC50) in experiment [1], in experiment [2] and in experiment [3] were 100 nM, “Not Active” and 2.5 µM, respectively.
For `OC[C@@H]1[C@@H](O)[C@H](O)[C@@H](O)CN1CCCCCOCc1cc2ccccc2c2ccccc12` the same measures were 100 nM, “Not Active” and 10 µM.
For `OC[C@H]1[C@@H](O)[C@H](O)[C@@H](O)CN1CCCC/C=C\C12CC3CC(CC(C3)C1)C2` the same measures were 8 nM, “Not Active” and 12 µM.
The matching figures for `OC[C@H]1[C@@H](O)[C@H](O)[C@@H](O)CN1CCCCCCC12CC3CC(CC(C3)C1)C2`: 20 nM, “Not Active” and 25 µM.
For `OC[C@H]1[C@@H](O)[C@H](O)[C@@H](O)CN1CCCCCOCc1cc2ccccc2c2ccccc12`, the IC50 in experiment [1] is 200 nM; in experiment [2] it was “Not Active”; in experiment [3], 600 µM.
For `OC[C@@H]1[C@@H](O)[C@H](O)[C@@H](O)CN1CC(F)(F)CCCOCc1ccc(-c2ccccc2)cc1`, the IC50 in experiment [4] is 1.25 µM; in experiment [5], more than 100 µM; in experiment [1], 10 nM; in experiment [6] it was more than 100 µM; in experiment [3] it was 0.125 µM; in experiment [7], 35 µM.
Consider `OC[C@@H]1[C@@H](O)[C@H](O)[C@@H](O)CN1CCCC(F)(F)COCc1ccc(-c2ccccc2)cc1`, for which the 50% inhibitory concentration (IC50) in experiment [4] was determined as 0.06 µM; in experiment [5] it was 27 µM; in experiment [1] it was 1 nM; in experiment [6] it was 9 µM; in experiment [3], 0.3 µM; in experiment [7], 0.4 µM.
For the compound `C[C@H](OCCCCCN1C[C@H](O)[C@@H](O)[C@H](O)[C@H]1CO)c1ccc(-c2ccccc2)cc1`, the IC50 in experiment [5] came to 9 µM; in experiment [1], 3 nM; in experiment [6], 2.5 µM; in experiment [3] it was 400 µM; in experiment [7], 0.25 µM.
For `C[C@@H](OCCCCCN1C[C@H](O)[C@@H](O)[C@H](O)[C@H]1CO)c1ccc(-c2ccccc2)cc1` the same measures were 35 µM, 3 nM, 4 µM, 0.3 µM and 0.5 µM.
As to `OC[C@@H]1[C@@H](O)[C@H](O)[C@@H](O)CN1CCCCCOCc1ccc(-c2ccccc2)cc1F`, the concentration for half-maximal inhibition (IC50) in experiment [5] was 30 µM; in experiment [1] it was 0.08 nM; in experiment [6], 2.5 µM; in experiment [7], 0.25 µM.
For `OC[C@@H]1[C@@H](O)[C@H](O)[C@@H](O)CN1CCCCCOCc1ccc(-c2ccccc2)c(F)c1` the same measures were 20 µM, 0.08 nM, 3 µM and 0.4 µM.
Turning to `OC[C@@H]1[C@@H](O)[C@H](O)[C@@H](O)CN1CCCCCOCc1ccc(-c2ccccc2)c(C(F)(F)F)c1`, the IC50 turned out to be 45 µM in experiment [5], 0.08 nM in experiment [1], 7 µM in experiment [6] and 1.25 µM in experiment [7].
Take `OC[C@H]1[C@@H](O)[C@H](O)[C@@H](O)CN1CCCCCOCc1cccc(-c2ccccc2)c1`: the IC50 in experiment [4] was 0.07 µM; in experiment [5] it was 60 µM; in experiment [6] it was more than 100 µM; in experiment [7] it was 100 µM.
For `OC[C@H]1[C@@H](O)[C@H](O)[C@@H](O)CN1CC(F)(F)CCCOCc1ccc(-c2ccccc2)cc1`, the IC50 was 0.02 µM in experiment [4], more than 100 µM in experiment [5], more than 100 µM in experiment [6] and more than 100 µM in experiment [7].
For `OC[C@H]1[C@@H](O)[C@H](O)[C@@H](O)CN1CCCCCOCc1ccc(-c2ccccc2)c(C(F)(F)F)c1`, the half-inhibitory concentration (IC50) in experiment [5] was 100 µM; in experiment [6], more than 100 µM; in experiment [7], more than 100 µM.
With `OC[C@H]1[C@@H](O)[C@H](O)[C@@H](O)CN1CCCCCOCc1ccc(-c2ccccc2)cc1F`, the figures for the IC50 in experiment [5], in experiment [6] and in experiment [7] were 60 µM, more than 100 µM and more than 100 µM, respectively.
For `OC[C@H]1[C@@H](O)[C@H](O)[C@@H](O)CN1CCCCCOCc1ccc(-c2ccccc2)c(F)c1` [NIZUBAGLUSTAT], the results for the IC50 in experiment [5], in experiment [6] and in experiment [7] were 50 µM, more than 100 µM and more than 100 µM, respectively.

Source of the values: ChEMBL document CHEMBL3352260, “Identification and development of biphenyl substituted iminosugars as improved dual glucosylceramide synthase/neutral glucosylceramidase inhibitors” (J Med Chem, 2014).
